Results from PMC6214630 (Biochimica et biophysica acta. General subjects, 2018).

Target: THB2 (Chlamydomonas reinhardtii, UniProt R9RZJ6)
Test: UV-visible absorption
Format: binding
Conditions: Fe(III) heme

SMILES	UV-visible absorption	UV-visible absorption (excess imidazole)
CC(=O)O [acetate]	this protein, like THB1 and a small number of TrHbs	
c1c[nH]cn1 [imidazole]		addition of excess imidazole to our preparations of THB2 nearly eliminates the discrepancies
